Measurements: publication PMC4057235, “Development and Evaluation of Small Peptidomimetic Ligands to Protease-Activated Receptor-2 (PAR2) through the Use of Lipid Tethering” (PLoS ONE, 2014)
Where two headings read alike, the source gives them in different places. Each block holds one compound with its values, some of them ahead of it. Square brackets hold non-standard residues; d marks the D form. Peptide text beside a SMILES is read from it. * marks the point of attachment. 4Thiazolecarbonyl(2-NH2) = Nc1nc(C(=O)*)cs1; Cha = N[C@@H](CC1CCCCC1)C(=O)O

Experiments:
PAR2 = biological target: T1, PAR2 (Homo sapiens, UniProt P55085); test: xCELLigence RTCA in vitro physiological response, 16HBE14o- cells; assay type: cell-based; conditions: for EC50: peak Normalized Cell Index within 4 hr
T1 construct: 16HBE14o- cells on E-plates in growth medium; endogenous in cells; host or cells: 16HBE14o- cells
T1 sequence (P55085 26-397): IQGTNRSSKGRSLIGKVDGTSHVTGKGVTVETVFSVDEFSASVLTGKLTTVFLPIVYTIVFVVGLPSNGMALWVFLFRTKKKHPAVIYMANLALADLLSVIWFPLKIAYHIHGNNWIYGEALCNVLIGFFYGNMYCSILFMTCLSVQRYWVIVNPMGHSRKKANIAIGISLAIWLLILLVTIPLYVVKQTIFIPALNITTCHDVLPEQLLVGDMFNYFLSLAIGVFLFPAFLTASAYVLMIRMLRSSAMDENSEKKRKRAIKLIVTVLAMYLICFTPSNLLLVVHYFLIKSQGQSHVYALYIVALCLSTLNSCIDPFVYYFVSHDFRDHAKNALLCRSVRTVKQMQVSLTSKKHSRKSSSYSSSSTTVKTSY
Source text: 16HBE14o- cells, a SV40 transformed human bronchial epithelial cell line, were obtained through the California Pacific Medical Center Research Institute (San Francisco, CA, USA). Cells were maintained and expanded as previously described. Briefly, cell lines were expanded in tissue culture flasks prior to transfer to 96 well E-plates (Roche) for experiments. Flasks and 96 well E-plates were coated initially with a matrix coating solution (88% Lechner and LaVeck basal medium, 10% bovine serum albumin (BSA; from 1 mg/ml stock), 1% bovine collagen type I (from 2.9 mg/ml stock), and 1% human fibronectin (from 1 mg/ml stock solution) and incubated for 2 hr at 37°C, after which the coating solution was removed and allowed to dry for at least 1 hr. 16HBE14o- cells were plated at a concentration of 1×10^5 cells/cm^2 and grown in Eagle’s Minimal Essential Medium supplemented with 10% Fetal Bovine Serum (FBS), 2 mM glutamax, penicillin and streptomycin (growth medium) at 37°C in a 5% CO2 atmosphere. Growth medium was replaced every other day until the cells reached confluence (5–7 days). Cells were then transferred to 96 well E-plates for RTCA, or collagen/fibronectin/BSA coated glass coverslips for Ca^2+ imaging experiments.
16HBE14o- cells on E-plates in growth medium and in a 37°C, 5% CO2 incubator were monitored for the establishment for relative impedance overnight every 15 min using the xCELLigence™ Real Time Cell Analyzer (RTCA, Roche), [28], [30]. When cells reached baseline impedance the next day, and prior to the experiment, the RTCA was moved to room air and temperature where full growth medium was replaced with 100μL modified Hank’s Balanced Saline Solution (HBSS) pre-warmed to 37°C. The RTCA was then allowed to come to room temperature (45–60 min) prior to ligand addition. Each well was then supplemented with 100 µL HBSS containing appropriate ligands to measure concentration response ranges in quadruplicate. Additional wells were used for vehicle controls. Relative impedance in each well was monitored every 30 sec over 4 hr. Peak responses, defined as the maximal change in Normalized Cell Index, were used to define maximal response concentrations and physiological EC50s for each ligand.

MrgprC11 = biological target: T2, MrgprC11 (Mus musculus, UniProt Q8CIP3); test: Ca2+ response in MrgprC11 transfected CHO cells; assay type: cell-based
T2 construct: An MrgprC11 cDNA in pcDNA3.1 vector was transfected into CHO cells; expressed in transfected cells; host or cells: CHO cells, transient transfection with Lipofectamine 2000
T2 sequence (Q8CIP3 1-322): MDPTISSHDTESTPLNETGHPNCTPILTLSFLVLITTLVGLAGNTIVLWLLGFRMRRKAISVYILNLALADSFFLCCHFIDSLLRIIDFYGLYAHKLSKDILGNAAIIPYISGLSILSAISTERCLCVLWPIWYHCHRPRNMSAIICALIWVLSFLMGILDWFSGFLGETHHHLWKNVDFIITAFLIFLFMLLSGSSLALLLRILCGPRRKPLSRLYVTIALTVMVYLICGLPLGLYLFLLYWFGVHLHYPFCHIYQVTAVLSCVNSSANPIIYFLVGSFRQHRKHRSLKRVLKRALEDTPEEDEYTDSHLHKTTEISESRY
Procedure: CHO cells were cultured in DMEM supplemented with 10% FBS and 1% penicillin and streptomycin at 37°C in a 5% CO2 atmosphere. One day before transfection, CHO cells were plated in a 60 mm cell culture dish at a concentration of 1×10^5 cells/cm^2 and grown without antibiotics. An MrgprC11 cDNA in pcDNA3.1 vector was transfected into CHO cells using Lipofectamine™ 2000 (Invitrogen) prior to transfer to coverslips for experiments. Coverslips were coated with 0.1 mg/ml poly-D-lysine (from 2 mg/ml stock) and incubated for 1 hr at room temperature, after which the coating solution was removed and the coverslips were washed twice with double distilled water. CHO cells were seeded on coverslips at a concentration of 1×10^5 cells/cm^2 6 hr after transfection. Transfected cells were incubated for 24 hr prior to Ca^2+ imaging.
16HBE14o- cells or CHO cells were loaded with fura 2-acetomethoxyl ester (CalBiochem or Molecular Probes) for 30 min at room temperature. Cells were washed with HBSS and allowed to sit for at least 20 min prior to digital imaging. For activation and desensitization assay experiments using 16HBE14o- cells, [Ca^2+]i was measured as previously described. Experiments consisted of 20 sec of recording of cells in HBSS to determine resting [Ca^2+]i, followed by a 10 sec wash to introduce ligand and up to 10 min of recording for ligand washes required for desensitization experiments. Briefly, fura-2 fluorescence was observed on an Olympus IX70 microscope with a 40X oil immersion objective after alternating excitation between 340 and 380 nm by a 75 W Xenon lamp linked to a Delta Ram V illuminator (PTI) and a gel optic line. Intracellular Ca^2+ concentration ([Ca^2+]i) for each individual cell in the field of view was calculated by ratiometric analysis of fura-2 fluorescence using equations originally published in [31]. Individual ratios were calculated every sec throughout the experiments. [Ca^2+]i traces over time are averaged [Ca^2+]i of all cells within a field of view (80–120) and are representative of at least 3 experiments. Cells were considered activated by the ligand if their resting [Ca^2+]i was increased above a 200 nM threshold, a 2–4 fold increase above typical resting values. Percent activation graphs are determined from 3–6 experiments for each ligand concentration. Time to threshold in individual cells represent between 200–400 cells from at least 3 experiments at each ligand concentration. Ca^2+ imaging of CHO cells was similar; each ligand concentration tested included at least 3 experiments and a minimum of 200 cells analyzed during each experiment.

mice = test: In vivo mechanical sensitivity (von Frey) after hindpaw injection; set-up: species or system mouse; conditions: 15 pmoles into plantar hindpaw, 1 and 3 hr post-injection
Procedure: Male ICR mice (Harlan) or PAR2 ^-/- mice and their wild type littermates on a C57Bl/6 background weighing 25–30 grams were used for these studies. Animal protocols were approved by the Institutional Animal Care and Use Committee of The University of Arizona. Compounds were injected into the plantar surface of the hindpaw in a total volume of 25 µL using a 31-gauge needle. Compounds were diluted using sterile saline. Mechanical thresholds were determined using calibrated von Frey filaments (Stoelting Co, Wood Dale, IN) with the up-down method. The experimenter was always blinded to the treatment conditions and animals were randomized such that animals in a single experimental group were never all housed together.

Structure (SMILES): CC[C@H](C)[C@H](NC(=O)[C@H](CC1CCCCC1)NC(=O)c1csc(N)n1)C(N)=O [Compound 9, 2at-Cha-I-NH2]
EC50 (PAR2): 1100 nM

Structure (SMILES): CCCCCCCCCCCCCCCCNC(=O)COCC(=O)NCCCOCCOCCOCCCNC(=O)COCC(=O)NCCCOCCOCCOCCCNC(=O)COCC(=O)NCCCOCCOCCOCCCNC(=O)[C@@H](NC(=O)[C@H](CC(C)C)NC(=O)c1csc(N)n1)[C@@H](C)CC [Compound 4, 2at-LI-PEG3-Hdc]
EC50 (PAR2): 310 nM

Structure (SMILES): CCCCCCCCCCCCCCCCNC(=O)COCC(=O)NCCCOCCOCCOCCCNC(=O)COCC(=O)NCCCOCCOCCOCCCNC(=O)COCC(=O)NCCCOCCOCCOCCCNC(=O)C(CC(C)C)NC(=O)c1csc(N)n1 [Compound 5, 2at-L-PEG3-Hdc]
RTCA response / agonism (peak Normalized Cell Index) (PAR2): eliminated ligand activity | RTCA response / agonism (peak Normalized Cell Index) (PAR2; listed as 2at-L-PEG 3-Hdc): eliminated in vitro activity | mechanical hypersensitivity (von Frey) (mice): inactive | mechanical hypersensitivity (von Frey) (mice; listed as 2at-L-PEG 3-Hdc): lacked efficacy

Structure (SMILES): CC[C@H](C)[C@H](NC(=O)[C@H](CC1CCCCC1)NC(=O)c1csc(N)n1)C(=O)NCC(=O)N[C@@H](CCCNC(=N)N)C(N)=O [Compound 7, 2at-Cha-IGR-NH2] ({4Thiazolecarbonyl(2-NH2)}-[Cha]IGR-NH2)
EC50 (PAR2): 490 nM

Structure (SMILES): CCCCCCCCCCCCCCCCNC(=O)COCC(=O)NCCCOCCOCCOCCCNC(=O)COCC(=O)NCCCOCCOCCOCCCNC(=O)COCC(=O)NCCCOCCOCCOCCCNC(=O)CNC(=O)[C@@H](NC(=O)[C@H](CC(C)C)NC(=O)c1csc(N)n1)[C@@H](C)CC [Compound 3, 2at-LIG-PEG3-Hdc]
EC50 (PAR2): 46 nM

Structure (SMILES): CCCCCCCCCCCCCCCCNC(=O)COCC(=O)NCCCOCCOCCOCCCNC(=O)COCC(=O)NCCCOCCOCCOCCCNC(=O)[C@@H](NC(=O)[C@H](CC1CCCCC1)NC(=O)c1csc(N)n1)[C@@H](C)CC [Compound 13, 2at-Cha-I-PEG2-Hdc]
EC50 (PAR2): 86 nM

Structure (SMILES): CCCCCCCCCCCCCCCCNC(=O)COCC(=O)NCCCOCCOCCOCCCNC(=O)COCC(=O)NCCCOCCOCCOCCCNC(=O)COCC(=O)NCCCOCCOCCOCCCNC(=O)c1csc(N)n1 [Compound 6, 2at-PEG3-Hdc]
RTCA response / agonism (peak Normalized Cell Index) (PAR2): eliminated ligand activity | RTCA response / agonism (peak Normalized Cell Index) (PAR2; listed as 2at-PEG 3-Hdc): eliminated in vitro activity

Other lines, results leading:

EC50 (PAR2): 43 nM
Structure (SMILES): CCCCCCCCCCCCCCCCNC(=O)COCC(=O)NCCCOCCOCCOCCCNC(=O)COCC(=O)NCCCOCCOCCOCCCNC(=O)[C@@H](NC(=O)[C@H](CC1CCCCC1)NC(=O)c1ccno1)[C@@H](C)CC [Compound 14, 5io-Cha-I-PEG2-Hdc]

EC50 (PAR2): 16 nM
Structure (SMILES): CCCCCCCCCCCCCCCCNC(=O)COCC(=O)NCCCOCCOCCOCCCNC(=O)COCC(=O)NCCCOCCOCCOCCCNC(=O)[C@H](CCCNC(=N)N)NC(=O)CNC(=O)[C@@H](NC(=O)[C@H](CC1CCCCC1)NC(=O)c1csc(N)n1)[C@@H](C)CC [Compound 11, 2at-Cha-IGR-PEG2-Hdc]

EC50 (PAR2): 2.1 nM | Ca2+ response (% of cells) (MrgprC11; 100 nM): 0.5%
Structure (SMILES): CCCCCCCCCCCCCCCCNC(=O)COCC(=O)NCCCOCCOCCOCCCNC(=O)COCC(=O)NCCCOCCOCCOCCCNC(=O)COCC(=O)NCCCOCCOCCOCCCNC(=O)[C@H](CCCNC(=N)N)NC(=O)CNC(=O)[C@@H](NC(=O)[C@H](CC(C)C)NC(=O)c1csc(N)n1)[C@@H](C)CC [Compound 2, 2at-LIGR-PEG3-Hdc]

EC50 (PAR2): 1.7 nM | Ca2+ response (% of cells) (MrgprC11; 1 nM): 0% | Ca2+ response (% of cells) (MrgprC11; 10 nM): 2.5% | Ca2+ response (% of cells) (MrgprC11; 100 nM): 10% | Ca2+ response (% of cells) (MrgprC11; 1 µM): 20% | Ca2+ response (% of cells) (MrgprC11; 10 µM): 88 ± 19%
Structure (SMILES): CCCCCCCCCCCCCCCCNC(=O)COCC(=O)NCCCOCCOCCOCCCNC(=O)COCC(=O)NCCCOCCOCCOCCCNC(=O)COCC(=O)NCCCOCCOCCOCCCNC(=O)[C@H](CC(C)C)NC(=O)[C@H](CCCNC(=N)N)NC(=O)CNC(=O)[C@@H](NC(=O)[C@H](CC(C)C)NC(=O)c1csc(N)n1)[C@@H](C)CC [Compound 1, 2at-LIGRL-PEG3-Hdc]

EC50 (PAR2): 6.8 nM
Structure (SMILES): CCCCCCCCCCCCCCCCNC(=O)COCC(=O)NCCCOCCOCCOCCCNC(=O)COCC(=O)NCCCOCCOCCOCCCNC(=O)[C@H](CCCNC(=N)N)NC(=O)CNC(=O)[C@@H](NC(=O)[C@H](CC1CCCCC1)NC(=O)c1ccno1)[C@@H](C)CC [Compound 12, 5io-Cha-IGR-PEG2-Hdc]
